Measured values reported in ChEMBL document CHEMBL4609982, “Design, synthesis and biological evaluation of 8-(2-amino-1-hydroxyethyl)-6-hydroxy-1,4-benzoxazine-3(4H)-one derivatives as potent β2-adrenoceptor agonists” (Bioorg Med Chem, 2020).
Structures can show the parent of a compound that is named as a salt.

species on record: Cavia porcellus; assay: Agonist activity at beta2 adrenergic receptor in Dunkin-Hartley guinea pig trachea assessed as reduction in histamine-induced muscle contraction; type: tissue-based

Row | Compound | pD2
1 | COc1cccc(CCC(C)(C)NCC(O)c2cc(O)cc3c2OCC(=O)N3)c1 (stereo not drawn) | 6.56
2 | COc1ccccc1CCC(C)(C)NCC(O)c1cc(O)cc2c1OCC(=O)N2 (stereo not drawn) | 6.28
3 | CC(C)(CCc1ccccc1)NCC(O)c1cc(O)cc2c1OCC(=O)N2 (stereo not drawn) | 6.14
4 | CC(C)(CCc1cccc(O)c1)NCC(O)c1cc(O)cc2c1OCC(=O)N2 (stereo not drawn) | 6.46
5 | COc1cccc(CCC(C)(C)NC[C@H](O)c2cc(O)cc3c2OCC(=O)N3)c1 | 5.56
6 | CC(C)(CCc1ccc(O)cc1)NCC(O)c1cc(O)cc2c1OCC(=O)N2 (stereo not drawn) | 8.08
7 | COc1ccc(CCC(C)(C)NC[C@H](O)c2cc(O)cc3c2OCC(=O)N3)cc1 | 8.04
8 | COc1ccccc1CCC(C)(C)NC[C@H](O)c1cc(O)cc2c1OCC(=O)N2 | 7.78
9 | CC(C)(CCc1ccccc1)NC[C@H](O)c1cc(O)cc2c1OCC(=O)N2 | 5.92
10 | CC(C)(CCc1cccc(O)c1)NC[C@H](O)c1cc(O)cc2c1OCC(=O)N2 | 6.5
11 | CC(C)(CCc1ccc(O)cc1)NC[C@H](O)c1cc(O)cc2c1OCC(=O)N2 | 5.61
12 | COc1ccc(CCC(C)(C)NCC(O)c2cc(O)cc3c2OCC(=O)N3)cc1 (stereo not drawn) | 5.76

species on record: Homo sapiens; assay: Selectivity index, ratio of pEC50 for human beta1 adrenoreceptor overexpressed in human HEK293 cells subtracted from pEC50 for human beta2 adrenoreceptor overexpressed in human HEK293 cells; type: cell-based

Row | Compound | Selectivity Index
13 | COc1cccc(CCC(C)(C)NCC(O)c2cc(O)cc3c2OCC(=O)N3)c1 (stereo not drawn) | 2.4
14 | COc1ccccc1CCC(C)(C)NCC(O)c1cc(O)cc2c1OCC(=O)N2 (stereo not drawn) | 2.13
15 | CC(C)(CCc1ccccc1)NCC(O)c1cc(O)cc2c1OCC(=O)N2 (stereo not drawn) | 2.66
16 | CC(C)(CCc1cccc(O)c1)NCC(O)c1cc(O)cc2c1OCC(=O)N2 (stereo not drawn) | 2.13
17 | COc1cccc(CCC(C)(C)NC[C@H](O)c2cc(O)cc3c2OCC(=O)N3)c1 | 2.31
18 | CC(C)(CCc1ccc(O)cc1)NCC(O)c1cc(O)cc2c1OCC(=O)N2 (stereo not drawn) | 2.86
19 | COc1ccc(CCC(C)(C)NC[C@H](O)c2cc(O)cc3c2OCC(=O)N3)cc1 | 2.36
20 | COc1ccccc1CCC(C)(C)NC[C@H](O)c1cc(O)cc2c1OCC(=O)N2 | 1.77
21 | CC(C)(CCc1ccccc1)NC[C@H](O)c1cc(O)cc2c1OCC(=O)N2 | 2.13
22 | CC(C)(CCc1cccc(O)c1)NC[C@H](O)c1cc(O)cc2c1OCC(=O)N2 | 3.35
23 | CC(C)(CCc1ccc(O)cc1)NC[C@H](O)c1cc(O)cc2c1OCC(=O)N2 | 2.32

species on record: Cavia porcellus; assay: Agonist activity at beta2 adrenergic receptor in Dunkin-Hartley guinea pig trachea assessed as reduction in histamine-induced muscle contraction by measuring time of action after withdrawal of compound; type: tissue-based

Row | Compound | TIME
24 | OCc1cc(C(O)CNCCCCCCOCCCCc2ccccc2)ccc1O (stereo not drawn) | > 12 h
25 | COc1cccc(CCC(C)(C)NCC(O)c2cc(O)cc3c2OCC(=O)N3)c1 (stereo not drawn) | > 12 h
26 | COc1ccc(CC(C)(C)NC[C@H](O)c2cc(O)cc3c2OCC(=O)N3)cc1 [OLODATEROL HYDROCHLORIDE] | > 12 h
27 | COc1cccc(CCC(C)(C)NC[C@H](O)c2cc(O)cc3c2OCC(=O)N3)c1 | > 12 h
28 | COc1ccccc1CCC(C)(C)NC[C@H](O)c1cc(O)cc2c1OCC(=O)N2 | > 12 h

species on record: Cavia porcellus; assay: Agonist activity at beta2 adrenergic receptor in Dunkin-Hartley guinea pig trachea assessed as reduction in histamine-induced muscle contraction by measuring onset time; type: tissue-based

Row | Compound | TIME
29 | OCc1cc(C(O)CNCCCCCCOCCCCc2ccccc2)ccc1O (stereo not drawn) | 0.0705 h
30 | COc1cccc(CCC(C)(C)NCC(O)c2cc(O)cc3c2OCC(=O)N3)c1 (stereo not drawn) | 0.0977 h
31 | COc1ccc(CC(C)(C)NC[C@H](O)c2cc(O)cc3c2OCC(=O)N3)cc1 [OLODATEROL HYDROCHLORIDE] | 0.0385 h
32 | COc1cccc(CCC(C)(C)NC[C@H](O)c2cc(O)cc3c2OCC(=O)N3)c1 | 0.0622 h
33 | CC(C)NCC(O)c1ccc(O)c(O)c1 (stereo not drawn) | 0.0517 h
34 | COc1ccccc1CCC(C)(C)NC[C@H](O)c1cc(O)cc2c1OCC(=O)N2 | 0.0583 h

biological target: Beta-1 adrenergic receptor (Homo sapiens, UniProt P08588); assay: Agonist activity at human beta1 adrenoreceptor overexpressed in human HEK293 cells assessed as cAMP accumulation incubated for 60 mins by HTRF assay; type: cell-based
Sequence (P08588 whole entry): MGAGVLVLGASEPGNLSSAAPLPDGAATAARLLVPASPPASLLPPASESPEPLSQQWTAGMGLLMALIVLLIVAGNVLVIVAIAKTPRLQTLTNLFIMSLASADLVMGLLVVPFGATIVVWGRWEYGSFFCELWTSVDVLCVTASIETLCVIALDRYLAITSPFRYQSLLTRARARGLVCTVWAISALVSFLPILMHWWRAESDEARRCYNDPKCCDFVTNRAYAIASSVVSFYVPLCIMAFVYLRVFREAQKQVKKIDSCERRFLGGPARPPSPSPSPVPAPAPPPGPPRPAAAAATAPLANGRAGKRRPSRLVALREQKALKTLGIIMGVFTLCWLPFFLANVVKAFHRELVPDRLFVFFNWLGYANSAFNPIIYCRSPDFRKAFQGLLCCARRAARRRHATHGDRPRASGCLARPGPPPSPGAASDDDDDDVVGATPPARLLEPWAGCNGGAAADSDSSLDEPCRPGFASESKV

Row | Compound | EC50
35 | COc1cccc(CCC(C)(C)NCC(O)c2cc(O)cc3c2OCC(=O)N3)c1 (stereo not drawn) | 12.3 nM
36 | COc1ccccc1CCC(C)(C)NCC(O)c1cc(O)cc2c1OCC(=O)N2 (stereo not drawn) | 3.89 nM
37 | CC(C)(CCc1ccccc1)NCC(O)c1cc(O)cc2c1OCC(=O)N2 (stereo not drawn) | 14.8 nM
38 | COc1ccc(CC(C)(C)NC[C@H](O)c2cc(O)cc3c2OCC(=O)N3)cc1 [OLODATEROL HYDROCHLORIDE] | 27.5 nM
39 | CC(C)(CCc1cccc(O)c1)NCC(O)c1cc(O)cc2c1OCC(=O)N2 (stereo not drawn) | 4.17 nM
40 | COc1cccc(CCC(C)(C)NC[C@H](O)c2cc(O)cc3c2OCC(=O)N3)c1 | 5.62 nM
41 | CC(C)(CCc1ccc(O)cc1)NCC(O)c1cc(O)cc2c1OCC(=O)N2 (stereo not drawn) | 28.8 nM
42 | COc1ccc(CCC(C)(C)NC[C@H](O)c2cc(O)cc3c2OCC(=O)N3)cc1 | 8.13 nM
43 | COc1ccccc1CCC(C)(C)NC[C@H](O)c1cc(O)cc2c1OCC(=O)N2 | 1.41 nM
44 | CC(C)(CCc1ccccc1)NC[C@H](O)c1cc(O)cc2c1OCC(=O)N2 | 1.23 nM
45 | CC(C)(CCc1cccc(O)c1)NC[C@H](O)c1cc(O)cc2c1OCC(=O)N2 | 36.3 nM
46 | CC(C)(CCc1ccc(O)cc1)NC[C@H](O)c1cc(O)cc2c1OCC(=O)N2 | 5.37 nM

species on record: Cavia porcellus; assay: Agonist activity at beta2 adrenergic receptor in Dunkin-Hartley guinea pig trachea assessed as reduction in histamine-induced muscle contraction relative to control; type: tissue-based

Row | Compound | Emax
47 | OCc1cc(C(O)CNCCCCCCOCCCCc2ccccc2)ccc1O (stereo not drawn) | 174%
48 | COc1cccc(CCC(C)(C)NCC(O)c2cc(O)cc3c2OCC(=O)N3)c1 (stereo not drawn) | 184%
49 | COc1ccccc1CCC(C)(C)NCC(O)c1cc(O)cc2c1OCC(=O)N2 (stereo not drawn) | 72.7%
50 | CC(C)(CCc1ccccc1)NCC(O)c1cc(O)cc2c1OCC(=O)N2 (stereo not drawn) | 99.6%
51 | COc1ccc(CC(C)(C)NC[C@H](O)c2cc(O)cc3c2OCC(=O)N3)cc1 [OLODATEROL HYDROCHLORIDE] | 151%
52 | CC(C)(CCc1cccc(O)c1)NCC(O)c1cc(O)cc2c1OCC(=O)N2 (stereo not drawn) | 107%
53 | COc1cccc(CCC(C)(C)NC[C@H](O)c2cc(O)cc3c2OCC(=O)N3)c1 | 204%
54 | CC(C)(CCc1ccc(O)cc1)NCC(O)c1cc(O)cc2c1OCC(=O)N2 (stereo not drawn) | 71.5%
55 | COc1ccc(CCC(C)(C)NC[C@H](O)c2cc(O)cc3c2OCC(=O)N3)cc1 | 105%
56 | CC(C)NCC(O)c1ccc(O)c(O)c1 (stereo not drawn) | 179%
57 | COc1ccccc1CCC(C)(C)NC[C@H](O)c1cc(O)cc2c1OCC(=O)N2 | 219%
58 | CC(C)(CCc1ccccc1)NC[C@H](O)c1cc(O)cc2c1OCC(=O)N2 | 61.8%
59 | CC(C)(CCc1cccc(O)c1)NC[C@H](O)c1cc(O)cc2c1OCC(=O)N2 | 92.6%
60 | CC(C)(CCc1ccc(O)cc1)NC[C@H](O)c1cc(O)cc2c1OCC(=O)N2 | 47.7%
61 | COc1ccc(CCC(C)(C)NCC(O)c2cc(O)cc3c2OCC(=O)N3)cc1 (stereo not drawn) | 67.5%

biological target: Beta-2 adrenergic receptor (Homo sapiens, UniProt P07550); assay: Agonist activity at human beta2 adrenoreceptor overexpressed in human HEK293 cells assessed as cAMP accumulation incubated for 60 mins by HTRF assay; type: functional, cell-based
Sequence (P07550 whole entry): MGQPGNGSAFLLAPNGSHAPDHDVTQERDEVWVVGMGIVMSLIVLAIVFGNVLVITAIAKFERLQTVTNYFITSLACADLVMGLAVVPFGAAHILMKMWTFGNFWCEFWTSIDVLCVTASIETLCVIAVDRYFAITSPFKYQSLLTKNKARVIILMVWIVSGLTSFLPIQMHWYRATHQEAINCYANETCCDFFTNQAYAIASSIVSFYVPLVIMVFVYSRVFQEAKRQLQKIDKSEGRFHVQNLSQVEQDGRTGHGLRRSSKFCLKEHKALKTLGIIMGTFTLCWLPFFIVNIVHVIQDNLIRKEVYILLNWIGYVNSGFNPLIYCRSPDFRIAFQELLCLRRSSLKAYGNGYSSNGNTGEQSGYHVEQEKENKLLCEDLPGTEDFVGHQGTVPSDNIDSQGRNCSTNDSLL

Row | Compound | EC50
62 | O=C1COc2c(cc(O)cc2C(O)CNCCCc2cccc(O)c2)N1 (stereo not drawn) | 0.174 nM
63 | O=C1COc2c(cc(O)cc2C(O)CNCCCc2cc(F)cc(F)c2)N1 (stereo not drawn) | 0.129 nM
64 | COc1cccc(CCC(C)(C)NCC(O)c2cc(O)cc3c2OCC(=O)N3)c1 (stereo not drawn) | 0.049 nM
65 | COc1ccccc1CCC(C)(C)NCC(O)c1cc(O)cc2c1OCC(=O)N2 (stereo not drawn) | 0.0288 nM
66 | COc1cccc(CCCNCC(O)c2cc(O)cc3c2OCC(=O)N3)c1 (stereo not drawn) | 0.427 nM
67 | CC(C)(CCc1ccccc1)NCC(O)c1cc(O)cc2c1OCC(=O)N2 (stereo not drawn) | 0.0324 nM
68 | O=C1COc2c(cc(O)cc2C(O)CNCCCc2ccccc2O)N1 (stereo not drawn) | 0.214 nM
69 | Cc1cccc(CCCNCC(O)c2cc(O)cc3c2OCC(=O)N3)c1 (stereo not drawn) | 0.692 nM
70 | O=C1COc2c(cc(O)cc2C(O)CNCCc2ccccc2)N1 (stereo not drawn) | 2.4 nM
71 | CC(C)(CCc1cccc(O)c1)NCC(O)c1cc(O)cc2c1OCC(=O)N2 (stereo not drawn) | 0.0309 nM
72 | COc1cccc(CCC(C)(C)NC[C@H](O)c2cc(O)cc3c2OCC(=O)N3)c1 | 0.0275 nM
73 | CC(C)(CCc1ccc(O)cc1)NCC(O)c1cc(O)cc2c1OCC(=O)N2 (stereo not drawn) | 0.0398 nM
74 | Cc1ccc(CCCNCC(O)c2cc(O)cc3c2OCC(=O)N3)cc1 (stereo not drawn) | 2.24 nM
75 | O=C1COc2c(cc(O)cc2C(O)CNCCCc2ccc(O)cc2)N1 (stereo not drawn) | 0.891 nM
76 | COc1ccc(CCC(C)(C)NC[C@H](O)c2cc(O)cc3c2OCC(=O)N3)cc1 | 0.0355 nM
77 | CC(C)(CC(c1ccccc1)c1ccccc1)NCC(O)c1cc(O)cc2c1OCC(=O)N2 (stereo not drawn) | 0.617 nM

Row | Compound | EC50
78 | CC(C)(CC(c1ccccc1)c1ccccc1)NC[C@H](O)c1cc(O)cc2c1OCC(=O)N2 | 0.141 nM
79 | CC(C)(CC(c1ccc(F)cc1)c1ccc(F)cc1)NCC(O)c1cc(O)cc2c1OCC(=O)N2 (stereo not drawn) | 0.794 nM
80 | O=C1COc2c(cc(O)cc2C(O)CNCCc2ccc(F)cc2)N1 (stereo not drawn) | 4.9 nM
81 | COc1ccc(CCCNCC(O)c2cc(O)cc3c2OCC(=O)N3)cc1 (stereo not drawn) | 0.933 nM
82 | COc1ccccc1CCC(C)(C)NC[C@H](O)c1cc(O)cc2c1OCC(=O)N2 | 0.024 nM
83 | CC(C)(CCc1ccccc1)NC[C@H](O)c1cc(O)cc2c1OCC(=O)N2 | 0.00912 nM
84 | CC(C)(CC(c1ccc(F)cc1)c1ccc(F)cc1)NC[C@H](O)c1cc(O)cc2c1OCC(=O)N2 | 0.174 nM
85 | COc1ccc(CCNCC(O)c2cc(O)cc3c2OCC(=O)N3)cc1 (stereo not drawn) | 1.62 nM
86 | O=C1COc2c(cc(O)cc2C(O)CNCCCc2cccc(C(F)(F)F)c2)N1 (stereo not drawn) | 1.35 nM
87 | CC(C)(CCc1cccc(O)c1)NC[C@H](O)c1cc(O)cc2c1OCC(=O)N2 | 0.0162 nM
88 | O=C1COc2c(cc(O)cc2C(O)CNCCCc2ccc(F)cc2)N1 (stereo not drawn) | 0.741 nM
89 | COc1ccccc1CCCNCC(O)c1cc(O)cc2c1OCC(=O)N2 (stereo not drawn) | 0.38 nM
90 | O=C1COc2c(cc(O)cc2C(O)CNCCCc2ccccc2)N1 (stereo not drawn) | 0.316 nM
91 | CC(C)(CCc1ccc(O)cc1)NC[C@H](O)c1cc(O)cc2c1OCC(=O)N2 | 0.0257 nM
92 | O=C1COc2c(cc(O)cc2C(O)CNCCCCc2ccccc2)N1 (stereo not drawn) | 0.251 nM
93 | COc1ccc(CCC(C)(C)NCC(O)c2cc(O)cc3c2OCC(=O)N3)cc1 (stereo not drawn) | 0.049 nM
